Results reported in ChEMBL document CHEMBL1201862, “PubChem BioAssay data set” (2004).
Activity calls are given as the source filed them.

Tests used:
[1] = target: COUP transcription factor 2 (Homo sapiens, UniProt P24468); assay: Luminescence-based cell-based high throughput dose response assay to identify inhibitors of COUP-TFII (NR2F2).; type: functional;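 also: HEK293 cells transiently cotransfected with COUP-TFII expression vector and reporter; luciferase reporter luminescence driven by COUP-TFII from the pX2-168 reporter plasmid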
[2] = test system: INS1; assay: INS-1E survival protection against cytokine death – cell-based, luminescence, retest, dose response (AID 449756); type: functional; details: Rattus norvegicus;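 also: cell death triggered by IL-1 beta plus TNF-alpha plus IFN-gamma mixture; protective hits raise ATP signal compared with cytokine alone wells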
[3] = viability loss in Vero cells – cytotoxicity control for Vif-APOBEC3G degradation inhibitor project, dose response (AID 1117358); type: functional; details: Vero
[4] = target: T1, E3 ubiquitin-protein ligase XIAP (Homo sapiens, UniProt P98170); assay: Counter Screen using XIAP-Bir3 for Chemical Antagonists of Bir1/2 domains of IAP-family anti-apoptotic proteins. [Related pubchem assays (depositor defined):AID1018, AID1449, AID1514, AID1638, AID1749, AID1750, AID488957, AID488963]
[5] = DRD fibroblast viability loss – cell-based, non-viral oncogenic, luminescence, dose response (AID 1934); type: functional; details: Homo sapiens
[6] = test system: HEK293; assay: cells; type: functional, cell-based; details: Homo sapiens
[7] = reduced cellular PGC1a acetyl-lysine signal – cell-based, cherry-picked samples, dose response (AID 720514); type: functional;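 also: potency may reflect raised or lowered acetylation signal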
[8] = target: T2, Protein RecA (Mycobacterium tuberculosis, UniProt P9WHJ3); assay: Fluorescence Cell-Free Homogeneous Dose Retest to Identify Inhibitors of RecA-Intein Splicing Activity. [Related pubchem assays (depositor defined):AID2097, AID2223, AID489010, AID492950]; type: functional
T2 sequence (P9WHJ3 whole entry): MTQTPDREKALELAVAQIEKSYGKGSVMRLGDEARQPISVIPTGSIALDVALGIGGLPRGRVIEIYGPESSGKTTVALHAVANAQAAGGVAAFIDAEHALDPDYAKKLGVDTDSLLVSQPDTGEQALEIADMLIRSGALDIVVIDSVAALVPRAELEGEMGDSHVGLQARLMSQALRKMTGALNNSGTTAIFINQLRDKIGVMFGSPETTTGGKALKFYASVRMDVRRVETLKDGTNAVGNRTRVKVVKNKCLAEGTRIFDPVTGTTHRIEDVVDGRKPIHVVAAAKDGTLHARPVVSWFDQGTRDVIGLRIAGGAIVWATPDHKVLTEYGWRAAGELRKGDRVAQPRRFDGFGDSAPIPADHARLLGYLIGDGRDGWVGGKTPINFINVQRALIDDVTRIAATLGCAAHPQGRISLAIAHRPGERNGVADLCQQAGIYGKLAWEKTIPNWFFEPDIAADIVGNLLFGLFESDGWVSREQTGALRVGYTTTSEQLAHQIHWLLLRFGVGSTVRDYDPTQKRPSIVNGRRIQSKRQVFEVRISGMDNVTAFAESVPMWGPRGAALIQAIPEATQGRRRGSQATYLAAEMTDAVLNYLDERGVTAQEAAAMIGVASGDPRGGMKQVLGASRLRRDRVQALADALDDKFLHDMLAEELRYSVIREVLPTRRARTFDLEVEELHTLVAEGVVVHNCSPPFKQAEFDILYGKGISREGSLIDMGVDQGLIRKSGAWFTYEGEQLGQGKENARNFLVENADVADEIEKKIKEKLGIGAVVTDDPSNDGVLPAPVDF

[9] = test system: BJ; assay: cells; type: functional, cell-based; details: Homo sapiens
[10] = test system: BJ; assay: BJ-TERT fibroblast viability loss – cell-based, RAS-independent, luminescence, dose response (AID 1933); type: functional; details: Homo sapiens
[11] = microbe, parasite or virus in culture; type: functional; details: Mycobacterium tuberculosis
[12] = target: Luciferin 4-monooxygenase (Photinus pyralis, UniProt P08659); assay: Counter Screen for Luciferase-based Assay Positives. [Related pubchem assays: 620, 618, 411 ]
[13] = test system: HEK293; assay: NOD2 signaling inhibitors in MDP-stimulated cells, cell-based, uHTS, luminescence (AID 2001); type: functional; details: Homo sapiens
[14] = test system: HT-1080; assay: HT1080 cell viability loss – fluorescence readout (AID 620); type: functional, cell-based; details: Homo sapiens
[15] = target: T3, Replicative DNA helicase DnaB (Mycobacterium tuberculosis, UniProt P9WMR3); assay: DnaB intein splicing inhibitors, dose response, biochemical, cell-free fluorescence (AID 449749); type: functional
T3 sequence (P9WMR3 whole entry): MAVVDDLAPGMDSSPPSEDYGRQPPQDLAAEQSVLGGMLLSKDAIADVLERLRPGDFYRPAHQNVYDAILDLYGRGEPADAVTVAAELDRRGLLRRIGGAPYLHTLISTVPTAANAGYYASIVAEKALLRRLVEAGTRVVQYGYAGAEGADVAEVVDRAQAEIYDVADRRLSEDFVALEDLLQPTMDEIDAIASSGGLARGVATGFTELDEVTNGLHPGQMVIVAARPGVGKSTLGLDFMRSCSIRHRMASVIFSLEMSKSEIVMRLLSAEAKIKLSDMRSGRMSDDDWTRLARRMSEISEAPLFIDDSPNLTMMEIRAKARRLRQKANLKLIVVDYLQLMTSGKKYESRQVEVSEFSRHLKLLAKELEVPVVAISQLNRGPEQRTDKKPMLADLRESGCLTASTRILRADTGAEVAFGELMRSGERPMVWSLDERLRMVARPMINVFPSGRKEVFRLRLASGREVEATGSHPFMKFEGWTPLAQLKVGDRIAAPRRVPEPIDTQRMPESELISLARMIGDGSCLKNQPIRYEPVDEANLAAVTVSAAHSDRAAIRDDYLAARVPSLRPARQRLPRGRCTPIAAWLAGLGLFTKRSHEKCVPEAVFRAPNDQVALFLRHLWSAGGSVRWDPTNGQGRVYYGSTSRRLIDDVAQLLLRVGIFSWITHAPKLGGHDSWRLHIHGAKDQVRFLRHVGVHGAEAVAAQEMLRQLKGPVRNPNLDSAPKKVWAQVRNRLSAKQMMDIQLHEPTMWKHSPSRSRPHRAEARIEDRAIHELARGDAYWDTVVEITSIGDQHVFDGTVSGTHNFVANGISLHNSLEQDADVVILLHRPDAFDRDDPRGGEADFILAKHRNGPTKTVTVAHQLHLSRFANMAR

[16] = test system: BJ; assay: growth inhibition of engineered Ras-driven BJ cells – cell-based, alamar blue fluorescence, cherrypicked samples, dose response (AID 2631); type: functional; details: Homo sapiens;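 also: confirmatory dose-response assay in RAS-dependent BJ fibroblasts engineered with TERT, LT and ST, with cytotoxicity read by fluorescence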
[17] = test system: HEK293; assay: inhibition of NOD1-driven NF-kB reporter – cell-based, luminescence, uHTS, primary screen (AID 1578); type: functional; details: Homo sapiens
[18] = test system: BJ; assay: BJ-TERT-LT-ST fibroblast viability loss – cell-based, RAS-independent, luminescence, dose response (AID 1935); type: functional; details: Homo sapiens;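 also: BJ fibroblasts immortalized with TERT plus LT and ST oncogenes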
[19] = target: T1, E3 ubiquitin-protein ligase XIAP; assay: small molecules displacing peptide from XIAP – biochemical, IAP family, fluorescence polarization (AID 1018); type: functional
[20] = test system: HEK293; assay: cells; type: functional, cell-based; details: Homo sapiens; remark: listed apart in the source
[21] = target: Caspase-6 (Homo sapiens, UniProt P55212); assay: inhibition of CASP6 peptide cleavage – biochemical, VEID-R110 fluorescence, cherry-pick, dose response (AID 720632)
[22] = blockers of HIV-1 envelope-mediated cell-cell fusion – cherry-pick, dose response (AID 652057); type: functional, cell-based
[23] = blockers of HIV-1 ZM109 envelope-driven cell-cell fusion – HeLa effector, CEM target cells, luciferase, cherry-pick, dose response (AID 652058); type: functional, cell-based;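 also: luciferase signal from HIV-1 Env mediated cell-cell fusion of effector and target cells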
[24] = toxicity to human hepatoma HepG2 cells – cell-based, cherry-picked samples, cytotoxicity control, dose response (AID 1159577); type: functional
[25] = P. falciparum Dd2 growth inhibitors, dose response, SYBR Green, cherry-picked samples (AID 1159567); type: functional, cell-based
[26] = HIV-1 AD8 envelope cell-cell fusion blockers – cherry-pick, dose response (AID 652062); type: functional, cell-based;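 also: luciferase signal from cell-cell fusion driven by HIV-1 clade B AD8 Env; potency is for inhibitors of fusion seen as a drop in luminescence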
[27] = OVCAR-3 cell viability loss – plate reader, dry powder samples, PAX8 inhibitor project, dose response (AID 743044); type: functional, cell-based
[28] = A2780 cell killing – plate reader, dry powder samples, cytotoxicity control, dose response (AID 743046); type: functional, cell-based
[29] = target: Paired box protein Pax-8 (Homo sapiens, UniProt Q06710); assay: PAX8 transcriptional activity inhibition in RMG-I – RMG-I cells, luciferase, cherry-pick, dose response (AID 687027); type: functional, cell-based;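 also: luciferase reporter driven by Pax8 target thyroperoxidase promoter measured by SteadyGlo luminescence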
[30] = OVCAR8 cell viability loss – plate reader, dry powder samples, PAX8 project, dose response (AID 743197); type: functional, cell-based; details: OVCAR-8

T1 sequence (P98170 whole entry): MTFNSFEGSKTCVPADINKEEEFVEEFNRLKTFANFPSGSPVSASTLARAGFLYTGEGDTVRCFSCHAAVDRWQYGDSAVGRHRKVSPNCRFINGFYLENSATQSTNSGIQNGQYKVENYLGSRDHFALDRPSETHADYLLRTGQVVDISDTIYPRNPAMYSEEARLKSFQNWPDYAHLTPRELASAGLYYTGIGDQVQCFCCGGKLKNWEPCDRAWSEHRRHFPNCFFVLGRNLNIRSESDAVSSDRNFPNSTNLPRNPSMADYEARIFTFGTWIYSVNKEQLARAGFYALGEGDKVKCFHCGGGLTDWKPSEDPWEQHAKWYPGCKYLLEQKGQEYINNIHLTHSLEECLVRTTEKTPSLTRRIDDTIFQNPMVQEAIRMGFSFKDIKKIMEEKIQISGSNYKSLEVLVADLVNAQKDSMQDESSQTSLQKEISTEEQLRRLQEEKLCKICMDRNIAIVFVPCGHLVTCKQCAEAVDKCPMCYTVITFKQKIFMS
Chain of Paired box protein Pax-8 (Q06710 whole entry): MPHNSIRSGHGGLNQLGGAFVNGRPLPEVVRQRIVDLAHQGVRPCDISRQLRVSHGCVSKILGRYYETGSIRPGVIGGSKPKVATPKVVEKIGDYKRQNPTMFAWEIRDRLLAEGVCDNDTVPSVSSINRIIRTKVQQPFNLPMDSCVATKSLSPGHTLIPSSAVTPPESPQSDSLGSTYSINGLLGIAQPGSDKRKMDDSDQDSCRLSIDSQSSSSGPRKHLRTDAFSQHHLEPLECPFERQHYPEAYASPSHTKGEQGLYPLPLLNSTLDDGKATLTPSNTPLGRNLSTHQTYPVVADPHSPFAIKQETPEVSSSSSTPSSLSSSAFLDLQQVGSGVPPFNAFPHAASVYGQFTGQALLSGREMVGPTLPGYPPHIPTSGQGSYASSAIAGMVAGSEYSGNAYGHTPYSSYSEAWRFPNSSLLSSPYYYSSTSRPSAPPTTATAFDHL
Chain of Luciferin 4-monooxygenase (P08659 whole entry): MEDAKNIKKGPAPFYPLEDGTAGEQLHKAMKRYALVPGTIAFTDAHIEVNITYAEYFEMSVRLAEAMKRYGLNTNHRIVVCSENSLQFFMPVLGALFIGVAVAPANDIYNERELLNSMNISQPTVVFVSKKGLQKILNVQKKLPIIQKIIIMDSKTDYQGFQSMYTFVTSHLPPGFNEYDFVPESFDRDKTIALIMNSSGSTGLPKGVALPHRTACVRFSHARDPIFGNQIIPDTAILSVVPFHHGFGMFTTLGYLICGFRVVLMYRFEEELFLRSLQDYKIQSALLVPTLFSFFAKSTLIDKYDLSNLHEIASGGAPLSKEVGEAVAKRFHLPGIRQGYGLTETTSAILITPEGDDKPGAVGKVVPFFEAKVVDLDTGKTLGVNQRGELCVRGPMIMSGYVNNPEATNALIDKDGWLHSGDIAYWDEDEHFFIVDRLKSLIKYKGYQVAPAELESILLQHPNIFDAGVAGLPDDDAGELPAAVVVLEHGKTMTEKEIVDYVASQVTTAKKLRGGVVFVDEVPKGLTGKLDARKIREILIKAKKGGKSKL
Chain of Caspase-6 (P55212 24-179 limits assumed): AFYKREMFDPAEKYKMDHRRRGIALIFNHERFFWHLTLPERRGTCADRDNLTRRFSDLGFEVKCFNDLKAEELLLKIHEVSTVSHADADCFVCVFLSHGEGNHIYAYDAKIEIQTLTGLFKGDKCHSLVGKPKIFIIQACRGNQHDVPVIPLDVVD
Chain of Caspase-6 (P55212 194-293 limits assumed): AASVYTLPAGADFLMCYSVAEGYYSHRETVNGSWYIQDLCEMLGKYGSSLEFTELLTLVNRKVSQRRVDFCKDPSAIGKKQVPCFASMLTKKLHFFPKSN
Chain of COUP transcription factor 2 (P24468 whole entry): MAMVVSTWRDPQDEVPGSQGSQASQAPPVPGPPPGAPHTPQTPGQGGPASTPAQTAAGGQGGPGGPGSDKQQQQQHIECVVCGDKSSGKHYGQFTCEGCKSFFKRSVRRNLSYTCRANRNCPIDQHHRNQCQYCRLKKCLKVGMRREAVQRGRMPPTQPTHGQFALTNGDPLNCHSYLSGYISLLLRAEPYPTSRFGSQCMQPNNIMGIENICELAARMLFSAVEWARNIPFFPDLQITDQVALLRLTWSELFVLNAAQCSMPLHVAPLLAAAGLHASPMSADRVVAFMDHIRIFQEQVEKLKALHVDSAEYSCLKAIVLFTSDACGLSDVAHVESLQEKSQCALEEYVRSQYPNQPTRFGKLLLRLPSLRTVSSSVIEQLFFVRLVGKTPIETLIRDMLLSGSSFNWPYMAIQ

## O=C(NCC(c1ccco1)N1CCCC1)c1ccc(Cl)c(S(=O)(=O)N2CCc3ccccc32)c1 (centres undefined)
[1]
  IC50: 7.01 µM (active)
[2]
  AC50: 3.56 µM (active)

## S=C(Nc1ccc(Oc2ccccc2)cc1)NC1CCCCC1
[3]
  CC50: 30.1 µM (active)

## O=S(=O)(c1ccc(Cl)cc1)c1snnc1-c1ccccc1
[4]
  IC50: > 100 µM (inactive)
[5]
  EC50: 4.96 µM (active)
[6]
  IC50: 2.17 µM (active)
[7]
  AC50: 7.86 µM (active)
[8]
  EC50: 9.19 µM (active)
[9]
  EC50: 3.53 µM (active)
[10]
  EC50: 2.39 µM (active)
[11]
  CC50: 2.44 µM (active)
[12]
  EC50: 3.73 µM (active)
[13]
  IC50: 6.92 µM (inactive)
[14]
  EC50: 20.7 µM (active)
[15]
  AC50: 23.9 µM (active)
[16]
  EC50: 0.51 µM (active)
[17]
  EC50: 10.7 µM (active)
[18]
  EC50: 3.25 µM (inconclusive)
[19]
  IC50: > 100 µM (not active)
[20]
  IC50: > 20 µM (inactive)

## Cc1ccc(Sc2ccc(S(=O)(=O)Nc3ccc(CC(=O)O)cc3)cc2)cc1C
[21]
  AC50: 49.3 µM (active)

## O=C(Nc1ccc(Cl)c(Cl)c1)N[C@@H]1CC[C@@H](CCn2cc(C3CCCCC3)nn2)O[C@@H]1CO
[22]
  AC50: 46.9 µM (active)
[23]
  AC50: 0.538 µM (active)
[24]
  AC50: 17.8 µM (active)
[25]
  AC50: 12.4 µM (active)
[26]
  AC50: 57.9 µM (active)

## C[C@H](CO)N1C[C@H](C)[C@@H](CN(C)S(=O)(=O)c2ccc(Cl)cc2)OCCCC[C@H](C)Oc2ccc(NS(=O)(=O)c3ccc(F)cc3)cc2C1=O
[27]
  AC50: 36 µM (active)
[28]
  AC50: 29.1 µM (active)
[29]
  AC50: 4.45 µM (active)

## CC(C)NC(=O)N1Cc2cc(C(=O)NCC(F)(F)F)nc(-c3cccc(-c4cc5ccccc5o4)c3)c2[C@H]1CCO
[27]
  AC50: 38.2 µM (active)
[28]
  AC50: 16.8 µM (active)
[30]
  AC50: 58.2 µM (active)
[29]
  AC50: 7.2 µM (active)
[25]
  AC50: 5.15 µM (active)
